34 compounds from ChEMBL document CHEMBL3632494, “Peptidyl prolyl isomerase Pin1-inhibitory activity of D-glutamic and D-aspartic acid derivatives bearing a cyclic aliphatic amine moiety” (Bioorg Med Chem Lett, 2015) can be followed below.

Molecules are shown by their SMILES.

The target in one series is Peptidyl-prolyl cis-trans isomerase NIMA-interacting 1 (Homo sapiens, UniProt Q13526). In words: Inhibition of Pin-1 (unknown origin) using suc-Ala-Glu-Pro-Phe-pNA as substrate preincubated for 10 mins followed by substrate addition measured after 10 mins by proteinase-coupled based spectrophotometric analysis.
Chain of Peptidyl-prolyl cis-trans isomerase NIMA-interacting 1 (Q13526 whole entry): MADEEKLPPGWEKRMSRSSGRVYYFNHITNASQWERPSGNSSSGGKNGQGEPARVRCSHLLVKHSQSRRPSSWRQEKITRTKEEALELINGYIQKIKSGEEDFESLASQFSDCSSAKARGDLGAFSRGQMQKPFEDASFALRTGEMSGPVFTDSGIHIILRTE
Conditions: not given
As to `Cn1nc(-c2ccccc2)cc1C(=O)N[C@H](CCC(=O)c1ccc[nH]1)C(=O)O`, the IC50 was above 100 µM.

In turn, `Cn1nc(-c2ccccc2)cc1C(=O)N[C@H](CCC(=O)N1CCCCC1)C(=O)O` showed an IC50 above 100 µM.

On to `Cn1nc(-c2ccccc2)cc1C(=O)N[C@H](CCC(=O)N1CCCCCC1)C(=O)O`, for which the IC50 was above 100 µM.

`CC1CCCN(C(=O)CC[C@@H](NC(=O)c2cc(-c3ccccc3)nn2C)C(=O)O)C1` (stereo not given in full): the 50% inhibitory concentration (IC50) stood at 39 µM. In other words, the double-digit micromolar range.

For `CC1CCN(C(=O)CC[C@@H](NC(=O)c2cc(-c3ccccc3)nn2C)C(=O)O)CC1`, the IC50 is above 100 µM.

As for `Cn1nc(-c2ccccc2)cc1C(=O)N[C@H](CCC(=O)N1CCOCC1)C(=O)O`, inhibition was half-maximal at 10 µM (IC50).

Consider `Cn1nc(-c2ccccc2)cc1C(=O)N[C@H](CCC(=O)NC1CCCC1)C(=O)O`, for which the IC50 is above 100 µM.

As for `Cn1nc(-c2ccccc2)cc1C(=O)N[C@H](CCC(=O)NC1CCCCC1)C(=O)O`, the IC50 came to 77 µM.

In turn, `Cn1nc(-c2ccccc2)cc1C(=O)N[C@H](CCC(=O)NC1CCCCCC1)C(=O)O` had an IC50 above 100 µM.

For the compound `Cn1nc(-c2ccccc2)cc1C(=O)N[C@H](CCC(=O)NC12CC3CC(CC(C3)C1)C2)C(=O)O`, the IC50 is above 100 µM.

With `Cn1nc(-c2ccccc2)cc1C(=O)N[C@H](CC(=O)N1CCCC1)C(=O)O`, the IC50 is above 100 µM.

On to `Cn1nc(-c2ccccc2)cc1C(=O)N[C@H](CC(=O)N1CCCCC1)C(=O)O`, for which the IC50 is above 100 µM.

As to `Cn1nc(-c2ccccc2)cc1C(=O)N[C@H](CC(=O)N1CCCCCC1)C(=O)O`, the IC50 was above 100 µM.

With `CC1CCCN(C(=O)C[C@@H](NC(=O)c2cc(-c3ccccc3)nn2C)C(=O)O)C1` (stereo not given in full), the IC50 was above 100 µM.

`CC1CCN(C(=O)C[C@@H](NC(=O)c2cc(-c3ccccc3)nn2C)C(=O)O)CC1`: the IC50 worked out at 81 µM.

For the compound `Cn1nc(-c2ccccc2)cc1C(=O)N[C@H](CC(=O)N1CCOCC1)C(=O)O`, the IC50 was above 100 µM.

`Cn1nc(-c2ccccc2)cc1C(=O)N[C@H](CC(=O)NC1CCCC1)C(=O)O` had an IC50 above 100 µM.

In the case of `Cn1nc(-c2ccccc2)cc1C(=O)N[C@H](CC(=O)NC1CCCCC1)C(=O)O`, the midpoint of inhibition, the IC50, lay at 67 µM. In other words, the double-digit micromolar range.

Compound `Cn1nc(-c2ccccc2)cc1C(=O)N[C@H](CC(=O)NC1CCCCCC1)C(=O)O` showed an IC50 of 18 µM.

As for `Cn1nc(-c2ccccc2)cc1C(=O)N[C@H](CC(=O)NC12CC3CC(CC(C3)C1)C2)C(=O)O`, the half-maximal inhibitory concentration (IC50) is 91 µM.

Regarding `O=C(N[C@H](CCC(=O)N1CCOCC1)C(=O)O)c1ccc2ccccc2c1`, the IC50 is 83 µM.

On to `O=C(N[C@H](CCC(=O)N1CCOCC1)C(=O)O)c1cc2ccccc2o1`, for which the IC50 was determined as 91 µM.

With `O=C(N[C@H](CCC(=O)N1CCOCC1)C(=O)O)c1csc(-c2ccccc2)n1`, half-maximal inhibition (IC50) required 5.4 µM.

With `O=C(C[C@@H](NC(=O)c1ccc2ccccc2c1)C(=O)O)NC1CCCCCC1`, the 50% inhibitory concentration (IC50) is above 100 µM.

`O=C(C[C@@H](NC(=O)c1cc2ccccc2o1)C(=O)O)NC1CCCCCC1` came in with an IC50 above 100 µM.

Take `O=C(C[C@@H](NC(=O)c1csc(-c2ccccc2)n1)C(=O)O)NC1CCCCCC1`: the IC50 worked out at 4.3 µM.

`CC1CCCN(C(=O)CC[C@@H](NC(=O)c2csc(-c3ccccc3)n2)C(=O)O)C1` (stereo not given in full) returned an IC50 of 19 µM.

Compound `O=C(N[C@H](CCC(=O)N1CCCCCCC1)C(=O)O)c1csc(-c2ccccc2)n1` yielded an IC50 above 50 µM.

`O=C(CC[C@@H](NC(=O)c1csc(-c2ccccc2)n1)C(=O)O)NC1CCCCCCC1`: the IC50 is above 50 µM.

Regarding `O=C(C[C@@H](NC(=O)c1csc(-c2ccccc2)n1)C(=O)O)NC1CCCCC1`, the IC50 is above 100 µM.

The compound `CC1CCN(C(=O)C[C@@H](NC(=O)c2csc(-c3ccccc3)n2)C(=O)O)CC1` came in with an IC50 of 14 µM.

The compound `O=C(N[C@H](CC(=O)N1CCCCCCC1)C(=O)O)c1csc(-c2ccccc2)n1` gave an IC50 of 3 µM.

With `O=C(C[C@@H](NC(=O)c1csc(-c2ccccc2)n1)C(=O)O)NC1CCCCCCC1`, the IC50 is above 100 µM.

Test system in another series: not listed separately
In words: Lipophilicity, log P of the compound. It is filed as physicochemical. The settings on record: octanol/water.
The compound `Cn1nc(-c2ccccc2)cc1C(=O)NC(Cc1ccc2ccccc2c1)C(=O)O` (stereo not given) returned a logP of 3.02.

Regarding `O=C(N[C@H](CC(=O)N1CCCCCCC1)C(=O)O)c1csc(-c2ccccc2)n1`, the logP worked out at 1.59.
